Structures can show the parent of a compound that is named as a salt. Where two headings read alike, the source gives them in different places.
Legend:
[1] = test system: α-rhamnosidase (naringinase); assay: Naringinase assay with p-nitrophenyl α-L-rhamnoside; type: biochemical; conditions: 1 mM compound; p-nitrophenyl α-L-rhamnoside 1.75 mM
Protocol: (§1) Melting points were recorded on a Kofler hot block. Proton nuclear magnetic resonance (δH) spectra were recorded on Varian Gemini 200 (at 200 MHz), Bruker WH 300 (300 MHz), or Bruker AM 500 (500 MHz) spectrometers. Carbon nuclear magnetic resonance (δC) spectra were recorded on a Varian Gemini 200 (50 MHz) or a Bruker 250 (62.9 MHz) spectrometer. Multiplicities were assigned using DEPT sequence on the Gemini and by off resonance decoupling on the Bruker. Spectra run in D2 O were referenced to methanol as an internal standard. All chemical shifts are quoted on the δ-scale. Infrared spectra were recorded on a Perkin-Elmer 297, or on a Perkin-Elmer 781 spectrophotometer. Mass spectra were recorded on VG Micromass 30F, ZAB lF, Masslab 20-250 or Trio-1 GCMS (DB-5 column) spectrometers using desorption chemical ionization (NH3 DCI), electron impact (EI), chemical ionization (NH3 CI) and fast atom bombardment (FAB) techniques, as stated. […] Concentrations were given in g/100 ml. Hydrogenations were run under an atmosphere of hydrogen gas maintained by inflated balloon. Microanalyses were performed by the microanalysis service of the DysonPerrins laboratory, Oxford UK. Thin layer chromatography (t.l.c.) was carried out on aluminum sheets coated with 60F254 silica. Plates were developed using either 5% v/v concentrated sulphuric acid in methanol, 0.2% w/v cerium (IV) sulphate and 5% ammonium molybdate in 2M sulphuric acid and 0.5% ninhydrin in methanol. Flash chromatography was carried out using Sorbsil C60 40/60 silica. Ion-exchange chromatography was performed using Dowex 50W-X8 (H) and Sigma CG 400 (Cl) resins. The resins were washed with 2M hydrochloric acid and 2M sodium hydroxide solution, respectively, and subsequently with distilled water, prior to use. Solvents and commercially available reagents were dried and purified before use according to standard procedures; dichloromethane was refluxed over and distilled from calcium hydride, N,N-dimethylformamide was distilled under reduced pressure from calcium hydride, methanol was distilled from magnesium methoxide, pyridine was distilled from, and stored over, potassium hydroxide and tetrahydrofuran was distilled from a purple solution of sodium benzophenone ketyl immediately before use. Hexane was distilled at 68° C. before use to remove involatile fractions. 2,3-O-Isopropylidene-L-gulono-1,4-lactone (9) [H. Ogura et al., J. Oro. Chem. 37, 72 (1972); G. W. J. Fleet Tetrahedron 45, 319 (1989)]and 2,3-O-isopropylidene-D-gulono-1,4-lactone (15) [L. M. Lerner et al., J. Org. Chem. 33, 1780 (1968)]were prepared from D- and L-Chem. gulonolactones [purchased from the Sigma Chemical Company] as reported previously. See, e.g., Fleet, U.S. Pat. No. 4,861,892. Human liver glycosidases were assayed in the absence and presence [1 mM] of each of the compounds using the appropriate buffered 4-methylumbellifeeryl-glycosides as substrates, as described previously. [B. Winchest et al., Biochem. J. 265, 277 (1990)]. Naringinase was assayed using pnitrophenyl α-L-rhamnoside (1.75 mM) as substrates, according to Romero [C. Romero et al., Anal. Biochem. 149, 566 (1985)].
(§2) The enzymes included human liver glycosidases and naringinase. The latter enzyme is a readily available endo-L-rhamnosidase described by Romero et al., Anal. Biochem. 149, 566 (1985).

[2] = target: T1, Lysosomal α-mannosidase (Homo sapiens, UniProt O00754); assay: Human liver glycosidase assay, lysosomal α-mannosidase; type: biochemical; parameters: human liver extracts; from tissue; host or cells: human liver extracts; conditions: for inhibition at 1000 µM: 1 mM compound, 4-methylumbelliferyl-glycoside substrate
T1 sequence (O00754 50-1011): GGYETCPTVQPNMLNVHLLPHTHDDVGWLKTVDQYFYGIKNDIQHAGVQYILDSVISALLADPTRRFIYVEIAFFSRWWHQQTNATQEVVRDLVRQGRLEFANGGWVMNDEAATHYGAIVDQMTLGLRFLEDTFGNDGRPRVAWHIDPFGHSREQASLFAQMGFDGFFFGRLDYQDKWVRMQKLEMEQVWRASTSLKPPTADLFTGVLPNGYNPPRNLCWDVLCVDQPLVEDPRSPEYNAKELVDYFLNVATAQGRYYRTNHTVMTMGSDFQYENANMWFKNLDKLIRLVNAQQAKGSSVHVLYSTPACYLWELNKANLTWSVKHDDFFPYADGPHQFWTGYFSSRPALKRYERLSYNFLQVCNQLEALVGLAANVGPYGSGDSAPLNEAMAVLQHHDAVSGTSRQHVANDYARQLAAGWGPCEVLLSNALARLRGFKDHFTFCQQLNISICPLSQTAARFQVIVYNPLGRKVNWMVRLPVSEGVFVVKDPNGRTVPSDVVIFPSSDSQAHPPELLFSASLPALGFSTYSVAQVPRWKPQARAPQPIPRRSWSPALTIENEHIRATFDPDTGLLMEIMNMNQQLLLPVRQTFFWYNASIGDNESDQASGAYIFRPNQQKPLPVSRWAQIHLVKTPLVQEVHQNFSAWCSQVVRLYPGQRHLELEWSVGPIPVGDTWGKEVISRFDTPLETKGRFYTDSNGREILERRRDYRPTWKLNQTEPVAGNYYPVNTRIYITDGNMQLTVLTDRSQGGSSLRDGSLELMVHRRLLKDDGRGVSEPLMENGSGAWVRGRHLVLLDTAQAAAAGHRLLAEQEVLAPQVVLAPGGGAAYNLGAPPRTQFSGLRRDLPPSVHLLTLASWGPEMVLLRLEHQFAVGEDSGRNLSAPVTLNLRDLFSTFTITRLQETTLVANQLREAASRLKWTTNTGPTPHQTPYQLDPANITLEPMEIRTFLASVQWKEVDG
Protocol: as §1, §2

[3] = target: T2, β-mannosidase (Homo sapiens, UniProt O00462); conditions: literature; cited from earlier work
T2 sequence (O00462 18-879): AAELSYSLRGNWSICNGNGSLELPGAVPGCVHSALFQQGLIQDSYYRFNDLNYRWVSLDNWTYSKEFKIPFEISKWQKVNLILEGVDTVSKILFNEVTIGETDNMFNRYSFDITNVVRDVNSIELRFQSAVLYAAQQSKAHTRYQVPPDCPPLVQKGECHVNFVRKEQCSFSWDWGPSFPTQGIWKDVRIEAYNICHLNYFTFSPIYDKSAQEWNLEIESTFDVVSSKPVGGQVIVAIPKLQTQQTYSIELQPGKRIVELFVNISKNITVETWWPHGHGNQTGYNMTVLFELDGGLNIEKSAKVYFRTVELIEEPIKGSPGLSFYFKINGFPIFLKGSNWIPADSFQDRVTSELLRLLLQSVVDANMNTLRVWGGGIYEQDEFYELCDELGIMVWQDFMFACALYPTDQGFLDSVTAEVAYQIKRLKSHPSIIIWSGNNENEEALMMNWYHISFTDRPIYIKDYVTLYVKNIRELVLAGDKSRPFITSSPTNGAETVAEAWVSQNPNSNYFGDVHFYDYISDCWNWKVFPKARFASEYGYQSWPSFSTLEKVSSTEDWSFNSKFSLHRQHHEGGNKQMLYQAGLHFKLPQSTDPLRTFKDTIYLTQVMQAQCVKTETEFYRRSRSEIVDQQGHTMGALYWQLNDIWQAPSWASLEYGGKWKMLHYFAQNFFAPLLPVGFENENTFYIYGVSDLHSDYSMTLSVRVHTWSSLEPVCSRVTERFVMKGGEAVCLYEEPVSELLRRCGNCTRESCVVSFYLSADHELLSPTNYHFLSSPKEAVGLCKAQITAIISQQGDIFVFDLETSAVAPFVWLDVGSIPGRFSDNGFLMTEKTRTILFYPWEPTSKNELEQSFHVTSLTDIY

[4] = target: T3, Lysosomal α-fucosidase (Homo sapiens, UniProt P04066); assay: Human liver glycosidase assay, lysosomal α-fucosidase; type: biochemical; conditions: read-out: Inhibition (%) at 1 mM, lysosomal α-fucosidase
T3 construct: human liver extracts; from tissue; host or cells: human liver extracts
T3 sequence (P04066 32-466): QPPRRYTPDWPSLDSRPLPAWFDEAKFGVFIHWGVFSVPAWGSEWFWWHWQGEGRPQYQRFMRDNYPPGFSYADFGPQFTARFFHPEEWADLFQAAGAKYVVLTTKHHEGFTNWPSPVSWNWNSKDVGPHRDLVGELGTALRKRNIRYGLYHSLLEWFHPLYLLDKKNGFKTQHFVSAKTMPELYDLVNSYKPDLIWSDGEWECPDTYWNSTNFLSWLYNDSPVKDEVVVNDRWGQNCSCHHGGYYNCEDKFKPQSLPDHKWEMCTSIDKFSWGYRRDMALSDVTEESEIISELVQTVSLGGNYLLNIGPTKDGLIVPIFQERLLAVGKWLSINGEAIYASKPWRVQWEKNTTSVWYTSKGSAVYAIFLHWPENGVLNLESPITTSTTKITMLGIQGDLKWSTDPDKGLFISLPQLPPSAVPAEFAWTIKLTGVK
Protocol: as §1, §2

[5] = test system: α-arabinosidase; assay: Human liver glycosidase assay, α-arabinosidase; type: biochemical; conditions: 1 mM compound
Protocol: (§3) Melting points were recorded on a Kofler hot block. Proton nuclear magnetic resonance (δH) spectra were recorded on Varian Gemini 200 (at 200 MHz), Bruker WH 300 (300 MHz), or Bruker AM 500 (500 MHz) spectrometers. Carbon nuclear magnetic resonance (δC) spectra were recorded on a Varian Gemini 200 (50 MHz) or a Bruker 250 (62.9 MHz) spectrometer. Multiplicities were assigned using DEPT sequence on the Gemini and by off resonance decoupling on the Bruker. Spectra run in D2 O were referenced to methanol as an internal standard. All chemical shifts are quoted on the δ-scale. Infrared spectra were recorded on a Perkin-Elmer 297, or on a Perkin-Elmer 781 spectrophotometer. Mass spectra were recorded on VG Micromass 30F, ZAB lF, Masslab 20-250 or Trio-1 GCMS (DB-5 column) spectrometers using desorption chemical ionization (NH3 DCI), electron impact (EI), chemical ionization (NH3 CI) and fast atom bombardment (FAB) techniques, as stated. […] Concentrations were given in g/100 ml. Hydrogenations were run under an atmosphere of hydrogen gas maintained by inflated balloon. Microanalyses were performed by the microanalysis service of the DysonPerrins laboratory, Oxford UK. […]
as §2

[6] = test system: human liver mannosidases; conditions: literature; cited from earlier work
[7] = test system: glycoprotein processing mannosidase I; conditions: literature; cited from earlier work
[8] = test system: mannosidases; conditions: literature; cited from earlier work
[9] = target: T4, bovine α-L-fucosidase (Bos taurus, UniProt Q2KIM0); conditions: literature; cited from earlier work
T4 sequence (Q2KIM0 23-468): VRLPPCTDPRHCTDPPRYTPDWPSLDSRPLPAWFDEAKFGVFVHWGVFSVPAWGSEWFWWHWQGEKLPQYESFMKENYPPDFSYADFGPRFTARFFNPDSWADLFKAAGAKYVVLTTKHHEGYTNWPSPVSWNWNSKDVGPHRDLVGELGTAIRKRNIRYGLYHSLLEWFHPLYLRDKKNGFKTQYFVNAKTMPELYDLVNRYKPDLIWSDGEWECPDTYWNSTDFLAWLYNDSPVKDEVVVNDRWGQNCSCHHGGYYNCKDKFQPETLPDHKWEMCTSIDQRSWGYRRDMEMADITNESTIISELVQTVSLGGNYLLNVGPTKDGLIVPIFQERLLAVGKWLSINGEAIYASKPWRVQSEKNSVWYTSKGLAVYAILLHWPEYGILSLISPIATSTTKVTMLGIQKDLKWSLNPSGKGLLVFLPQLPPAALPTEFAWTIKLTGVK

[10] = test system: N-acetyl-β-D-hexosaminidase; assay: Human liver glycosidase assay, N-acetyl-β-D-hexosaminidase; type: biochemical; conditions: 1 mM compound
Protocol: as §3, §2

[11] = human liver, read-out: Ki, lysosomal α-mannosidase

inhibition at 1000 µM ([4]; 1 mM compound, human liver)	Inhibition (%) at 1 mM, α-arabinosidase [5]	Ki [2, 11]	SMILES	Inhibition (%) at 1 mM, α-rhamnosidase (naringinase) [1]	inhibition at 1000 µM ([2]; human liver)	Inhibition of glycoprotein processing mannosidase (in words) [7]	also measured
			C[C@H]1NC[C@@H](O)[C@@H](O)[C@@H]1O [D-Rhamnojirimycin (5), 1,5-amino-1,5,6-trideoxy-D-mannitol hydrochloride]	10%	55%		IC50 ([2]; human liver, read-out: I50, lysosomal α-mannosidase): 1000 µM
			O[C@H]1[C@H]2[C@H](O)CCCN2C[C@H]1O [swainsonine]				Inhibition of β-mannosidase (in words) [3]: fail to inhibit
21%	91%	1.3 µM	C[C@@H](O)[C@H]1NC[C@@H](O)[C@H]1O [1,4-dideoxy-1,4-imino-6-deoxy-mannitol]		100%		Inhibition of human liver mannosidases (in words) [6]: excellent inhibitor
			C[C@@H]1NC[C@H](O)[C@H](O)[C@H]1O [L-Rhamnojirimycin (7), 1,5-Imino-1,5,6-trieoxy-L-mannitoI hydrochIoride]	0%	19%		
24%	66%	13 µM	OC[C@@H](O)[C@H]1NC[C@@H](O)[C@H]1O [1,4-dideoxy-1,4-iminomannitol (3), 1,4-dideoxy-1,4-iminomannitol]		89%	strong	Inhibition of many mannosidases (in words) [8]: strong
			OC[C@H]1NC[C@@H](O)[C@@H](O)[C@@H]1O [DMJ (1), deoxymannojirimycin]			potent inhibitor	inhibition at 1000 µM [4]: 92%; Inhibition of bovine α-L-fucosidase (in words) [9]: potent inhibitor; Inhibition (%) at 1 mM, N-acetyl-β-D-hexosaminidase [10]: 54%; Ki [2]: 750 µM

Source: patent US5210089A, “D-rhamnono-1,5-lactone” (Monsanto Company, priority 1992, dated 1993)
